Where a name gives a salt, the structure may show the parent alone.
How the values were obtained:
[1] = tested on: HNE-induced hemorrhage in the lung; assay: Neutrophil elastase-induced lung hemorrhagic assay; format: in vivo; conditions: Mus musculus, iv, 10 mg/kg intravenously to male balb/c mice 10 min before intratracheal HNE, hemoglobin in BALF 3 h after HNE, vs vehicle-treated controls, read-out: % Inhibition in Murine Lung Hemorrhage Model @ 10 mg/kg
Text: Neutrophil Elastase-Induced Lung Hemorrhagic Assay
This in vivo assay is based on estimating the amount of hemorrhage in the lung following intratracheal administration of human neutrophil elastase (HNE). Hemorrhage is quantified by measuring the concentration of hemoglobin in the bronchoalveolar lavage fluid (BALF).
DMSO or saline served as vehicle controls. Mice were anesthetized with halothane and the trachea exposed by a small incision in the neck. Ten minutes after compound administration, mice received 7.5 units/animal of HNE (Elastin Products Co.) dissolved in […] saline. Three hours after HNE instillation, the animals were euthanized with an overdose of urethane. […] Triton X-100 was added to the collected BALF at a final concentration of 0.2% (v/v) to ensure cell disruption.

[2] = molecular target: T1, Human sputum neutrophil elastase (Homo sapiens, UniProt P08246); assay: Inhibitor IC50 against human neutrophil elastase (fluorogenic MeOSuc-AAPV-AMC substrate); format: biochemical; conditions: 20 min preincubation, read-out: HNE IC50
T1 construct: purchased Elastin Products Co; host or cells: human sputum (natural source)
T1 sequence (P08246 30-247 limits assumed): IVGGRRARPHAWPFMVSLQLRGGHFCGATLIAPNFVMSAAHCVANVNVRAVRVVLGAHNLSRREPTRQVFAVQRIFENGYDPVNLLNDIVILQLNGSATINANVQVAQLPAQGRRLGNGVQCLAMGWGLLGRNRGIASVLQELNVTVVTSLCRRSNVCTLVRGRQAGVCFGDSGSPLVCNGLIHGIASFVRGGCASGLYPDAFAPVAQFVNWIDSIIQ
Experimental: Determination of Inhibitor IC50 Values Against Human Neutrophil Elastase
Human sputum neutrophil elastase (Elastin Products Co.) was diluted into Assay Buffer A (200 mM Tris pH 7.4, 1 mg/ml BSA) to a working concentration of 0.55 U/ml. […] DMSO alone was used as the negative control. MeOSuc-AAPV-AMC (Bachem) substrate was dissolved in DMSO to 20 mM and further diluted to 1 mM in Assay Buffer A immediately before use. Substrate was added to the elastase assay at a final concentration of 1×10^−4 M. The reaction was allowed to proceed for 20 minutes at room temperature and then quenched with acetic acid at a final concentration of 3% (v/v). […] Fluorescence intensity versus inhibitor concentration was plotted and fit to the Hill equation to quantify IC50 values.

| SMILES | inhibition in vivo at 10 mg/kg [1] [%] | IC50 [2] [µM] | melting point [°C] |
| --- | --- | --- | --- |
| Cc1cccc2nc(-c3cccnc3Oc3ccc(Cl)cc3)oc(=O)c12 [Compound 21] | < 10 | 0.016 to 0.06 |  |
| Cc1cccc2nc(-c3ccccn3)oc(=O)c12 [Compound 4] | > 30 | > 0.15 |  |
| Cc1cccc2nc(-c3cccnc3N3CCCC(N(C)C)C3)oc(=O)c12 (stereo not drawn) [Compound 49] | < 10 | 0.061 to 0.15 |  |
| Cc1cccc2nc(-c3cccnc3N3CCN(C)C(C)C3)oc(=O)c12 (stereo not drawn) [Compound 50] | 11 to 30 | > 0.15 |  |
| Cc1cccc2nc(-c3cccnc3Oc3ccc(F)cc3)oc(=O)c12 [Compound 36] | > 30 | 0.016 to 0.06 |  |
| O=c1oc(-c2cccnc2Oc2ccccc2)nc2cccc(C(F)(F)F)c12 [Compound 39] | > 30 | < 0.015 |  |
| Cc1cccnc1-c1nc2cccc(Cl)c2c(=O)o1 [Compound 18] | < 10 | 0.016 to 0.06 |  |
| Cc1cccc2nc(-c3cccnc3N3CCC(N(C)C)C3)oc(=O)c12 (stereo not drawn) [Compound 46, 2-[2-(3-Dimethylamino-pyrrolidin-1-yl)-pyridin-3-yl]-5-methyl-4H-benz[d][1,3]oxazin-4-one] | > 30 | 0.061 to 0.15 |  |
| Cc1cccc2nc(-c3cccnc3N(C)C3CCN(C)C3)oc(=O)c12 (stereo not drawn) [Compound 53] | 11 to 30 | 0.061 to 0.15 |  |
| CCc1cc(OC)cc2nc(-c3cccnc3N3CC[C@H](N(C)C)C3)oc(=O)c12 (as salt: methanesulfonate) (hydrate or solvate) [Compound 132, 2-[2-((S)-3-Dimethylamino-pyrrolidin-1-yl)-pyridin-3-yl]-5-ethyl-7-methoxy-4H-benz[d][1,3]oxazin-4-one] |  |  | 43 to 49 |
| CCc1cc(OC)cc2nc(-c3cccnc3N3CC[C@H](N(C)C)C3)oc(=O)c12 (as salt: trifluoroacetate) [Compound 132, 2-[2-((S)-3-Dimethylamino-pyrrolidin-1-yl)-pyridin-3-yl]-5-ethyl-7-methoxy-4H-benz[d][1,3]oxazin-4-one] |  |  | 117 to 119 |
| Cc1cccc2nc(-c3ncccc3-n3ccnc3)oc(=O)c12 [Compound 68] |  | > 0.15 |  |
| CCc1cc(OC)cc2nc(-c3cccnc3N3CCC(CN4CCCC4)CC3)oc(=O)c12 [Compound 272] |  | < 0.015 |  |
| CCc1cc(OC)cc2nc(-c3cccnc3N3CCN(CCCC#N)CC3)oc(=O)c12 [Compound 219] |  | 0.016 to 0.06 |  |
| COc1cc(C(C)C)c2c(=O)oc(-c3cccnc3N3CCCN(C)CC3)nc2c1 [Compound 122] |  | 0.061 to 0.15 |  |
| COc1cc(C(C)C)c2c(=O)oc(-c3cnn(C)c3N3CCC(N(C)C)C3)nc2c1 (stereo not drawn) [Compound 127] |  | > 0.15 |  |
| CCc1cc(OC)cc2nc(-c3cccnc3N3CCC(C)(C(=O)N4CCN(C)CC4)CC3)oc(=O)c12 [Compound 273] |  | 0.016 to 0.06 |  |
| CCc1cc(OC)cc2nc(-c3cccnc3N3CCC(CCCC(=O)O)CC3)oc(=O)c12 [Compound 225] |  | 0.016 to 0.06 |  |
| COCCN1CCN(c2ncccc2-c2nc3cccc(C)c3c(=O)o2)CC1 [Compound 44] | 11 to 30 | 0.016 to 0.06 |  |
| COc1cc(C2CC2)c2c(=O)oc(-c3cccnc3N3CC[C@@H](N(C)C)C3)nc2c1 [Compound 164] |  | 0.061 to 0.15 |  |
| CCc1cc(OC)cc2nc(-c3cccnc3N3CCN(c4ccncc4)CC3)oc(=O)c12 [Compound 252] |  | < 0.015 |  |

| SMILES | inhibition in vivo at 10 mg/kg [1] [%] | IC50 [2] [µM] | melting point [°C] |
| --- | --- | --- | --- |
| Cc1cccc2nc(-c3cccnc3Cl)oc(=O)c12 [Compound 20] |  | 0.016 to 0.06 |  |
| CCN(CC)CC1CN(c2ncccc2-c2nc3cccc(C)c3c(=O)o2)CCO1 (stereo not drawn) [Compound 60] |  | > 0.15 |  |
| O=c1oc(-c2cccnc2Oc2ccccc2)nc2cc(Cl)cc(Cl)c12 [Compound 14] |  | > 0.15 |  |
| COCCN1CCN(c2c(-c3nc4cc(OC)cc(C(C)C)c4c(=O)o3)cnn2C)CC1 [Compound 119] |  | > 0.15 |  |
| CCc1cc(OC)cc2nc(-c3cccnc3N(C)CC3CCN(C)C3)oc(=O)c12 (stereo not drawn) [Compound 244] |  | < 0.015 |  |
| Cc1cccc2nc(-c3cccnc3N3CCN(CC4CC4)CC3)oc(=O)c12 [Compound 54] | > 30 | > 0.15 |  |
| Cc1cccc2nc(-c3cccnc3N3CCS(=O)(=O)CC3)oc(=O)c12 [Compound 62] |  | > 0.15 |  |
| O=c1oc(-c2cccnc2Oc2ccc(F)cc2)nc2cccc(Cl)c12 [Compound 26] | 11 to 30 | 0.061 to 0.15 |  |
| COc1cc(C2CCC2)c2c(=O)oc(-c3cccnc3N(C)CCN(C)C)nc2c1 [Compound 188] |  | 0.016 to 0.06 |  |
| CCc1cc(OC)cc2nc(-c3cccnc3N(C)CCN3CCCC3)oc(=O)c12 [Compound 237] |  | < 0.015 |  |
| O=c1oc(-c2cccnc2-n2ccnc2)nc2cccc(Br)c12 [Compound 72] |  | 0.061 to 0.15 |  |
| O=c1oc(-c2cccnc2SCCS(=O)(=O)c2ccccc2)nc2cccc(Cl)c12 [Compound 30] |  | 0.016 to 0.06 |  |
| Cc1cccc2nc(-c3cccnc3Oc3ccc4c(c3)OCO4)oc(=O)c12 [Compound 37] |  | 0.016 to 0.06 |  |
| CCCc1cc(OC)cc2nc(-c3cccnc3N3CCCN(C)CC3)oc(=O)c12 [Compound 156] |  | 0.061 to 0.15 |  |
| CSc1ncccc1-c1nc2cccc(C)c2c(=O)o1 [Compound 23] |  | 0.061 to 0.15 |  |
| COc1ccc(-c2nc3cccc(Cl)c3c(=O)o2)c(OC)n1 [Compound 38] |  | < 0.015 |  |
| COc1cc(C(C)C)c2c(=O)oc(-c3cnn(C)c3N3CCN(C)CC3)nc2c1 [Compound 123] |  | > 0.15 |  |
| O=c1oc(-c2cccnc2-n2ccnc2)nc2cccc(C(F)(F)F)c12 [Compound 64] |  | < 0.015 |  |
| CCc1cc(OC)cc2nc(-c3cccnc3N3CCC(CCN(C)C)CC3)oc(=O)c12 [Compound 248] |  | < 0.015 |  |
| CCCc1cc(OC)cc2nc(-c3cccnc3N3CCN(CCN4CCOCC4)CC3)oc(=O)c12 [Compound 147] |  | 0.061 to 0.15 |  |
| CCc1cc(OC)cc2nc(-c3cccnc3N3CC[C@@H](N4CCS(=O)(=O)CC4)C3)oc(=O)c12 [Compound 269] |  | < 0.015 |  |

| SMILES | inhibition in vivo at 10 mg/kg [1] [%] | IC50 [2] [µM] | melting point [°C] |
| --- | --- | --- | --- |
| O=c1oc(-c2ccccn2)nc2cc(Cl)cc(Cl)c12 [Compound 11] |  | > 0.15 |  |
| CCc1cc(OC)cc2nc(-c3cccnc3N3CC[C@@H](N(C)C)C3)oc(=O)c12 [Compound 131] |  | < 0.015 |  |
| Cc1cccc2nc(-c3cc[n+]([O-])cc3)oc(=O)c12 [Compound 6] |  | > 0.15 |  |
| CCc1cccc2nc(-c3cccnc3N(C)C3CCN(C)C3)oc(=O)c12 (stereo not drawn) [Compound 153] |  | 0.016 to 0.06 |  |
| CCc1cc(OC)cc2nc(-c3cccnc3N3CCC(Cc4ccccc4)CC3)oc(=O)c12 [Compound 224] |  | 0.061 to 0.15 |  |
| CCc1cccc2nc(-c3cccnc3N3CC[C@H](N(C)C)C3)oc(=O)c12 [Compound 91] |  | < 0.015 |  |
| CCc1cc(OC)cc2nc(-c3cccnc3N3CC[C@H](N(CCO)CCO)C3)oc(=O)c12 [Compound 263] |  | < 0.015 |  |
| COc1cc(C(C)C)c2c(=O)oc(-c3cnn(C)c3[N+](=O)[O-])nc2c1 [Compound 120] |  | 0.016 to 0.06 |  |
| COc1cc(C(C)C)c2c(=O)oc(-c3cccnc3-n3ccnc3)nc2c1 [Compound 109] |  | 0.016 to 0.06 |  |
| COc1cc(C2CCC2)c2c(=O)oc(-c3cccnc3N3CC[C@H](N(C)C)C3)nc2c1 [Compound 176] |  | 0.061 to 0.15 |  |
| COc1cc(C2CC2)c2c(=O)oc(-c3cccnc3N3CC[C@H](N(C)C)C3)nc2c1 [Compound 165] |  | 0.061 to 0.15 |  |
| CCc1cc(OC)cc2nc(-c3cccnc3N3CC[C@@H](N(C)CCO)C3)oc(=O)c12 [Compound 270] |  | < 0.015 |  |
| CCc1cc(OC)cc2nc(-c3cccnc3N3CC[C@@H](N(CCO)CCO)C3)oc(=O)c12 [Compound 268] |  | < 0.015 |  |
| CCc1cc(OC)cc2nc(-c3cccnc3N3CC[N+](C)(CC4OCCO4)CC3)oc(=O)c12 [Compound 231] |  | < 0.015 |  |
| COc1cc(C(C)C)c2c(=O)oc(-c3cnn(C)c3N3CCN(CCN(C)C)CC3)nc2c1 [Compound 125] |  | > 0.15 |  |
| COc1cc(C)c2c(=O)oc(-c3cccnc3-n3ccnc3)nc2c1 [Compound 83] |  | > 0.15 |  |
| COc1cccc2nc(-c3cccnc3-n3ccnc3)oc(=O)c12 [Compound 66] |  | > 0.15 |  |
| CCCc1cc(OC)cc2nc(-c3cccnc3N3CC[C@@H](N(C)C)C3)oc(=O)c12 [Compound 149] |  | 0.061 to 0.15 |  |
| COc1cc(C(C)C)c2c(=O)oc(-c3cccnc3N(C)CCN(C)C)nc2c1 [Compound 118] |  | 0.061 to 0.15 |  |
| COCCOCCOCCOCCOc1ncccc1-c1nc2cccc(C)c2c(=O)o1 [Compound 52, 2-[2-(2-{2-[2-(2-Methoxy-ethoxy)-ethoxy]-ethoxy}-ethoxy)-pyridin-3-yl]-5-methyl-4H-benz[d][1,3]oxazin-4-one] | 11 to 30 | 0.016 to 0.06 |  |

From patent US7879846B2, “Serine hydrolase inhibitors” (Kyorin Pharmaceutical Co.., Ltd., priority 2006, dated 2011)
